Data on 3 compounds can be found in patent publication US20130165396A1, “Apple Skin Extracts for Treating Cardiovascular Disease” (NATIONAL RESEARCH COUNCIL OF CANADA, priority 2010, published 2013).

Format in all cases: biochemical
Assay [1] deals with LDL isolated from human plasma. The assay can be described thus: TBARS assay, Cu2+-induced LDL oxidation. On the procedure:
(§1) To remove the inherent antioxidants, purchased LDL was dialyzed using Fisherbrand cellulose dialysis tubing (type T3 membrane, Thermo Fisher Scientific Inc., Ottawa, ON, Canada) against PBS containing 0.138 M NaCl and 0.0027 M KCl (pH 7.4, at 25° C.) at 4° C. for 24 hours. The buffer was changed every six hours. The dialyzed LDL was immediately used or stored at −80° C. in the dark under nitrogen and used within two to three weeks. Protein content of the dialyzed LDL was measured by the Lowry's method (Lowry et al., J. Biol. Chem., 1951, 193: […]) using bovine serum albumin as the standard.
(§2) Two oxidation induction methods were used: copper sulfate and 2,2′-azobis(2-methylpropionamidine)dihydrochloride (AAPH). For both induction systems, 100 μg/mL of final LDL protein concentration was used. LDL was oxidized at the presence of 10 μM final concentration of Cu^2+and 5 mM final concentration of AAPH separately at 37° C. for 4 h in the dark. […] Oxidation was terminated by adding a 1:1 mixture of 1 mM solution of ethylenediaminetetraacetic acid (EDTA) and 1 mM solution of butylated hydroxytoluene (BHT).
(§3) Two main constituents of TAE and oleanolic acid, which is an isomer of ursolic acid, were also used to investigate the concentration-responsiveness. The same concentrations of Cu^2+ and AAPH were used and the oxidation was terminated by a 1:1 mixture of EDTA and BHT as explained earlier under this section.
(§4) TBARS were measured according to the method of Xu et al., J. Food Sci., 2007, 72: S522-S527 with slight modifications. […] The mixture was incubated at 95° C. for 30 min to develop a pink chromogen. After cooling to room temperature tubes were centrifuged at 1500 g for 15 min and the fluorescence was measured using the FLUOstar OPTIMA plate reader (BMG Labtech Inc. Canada). Excitation and emission wavelengths used were 532 and 590 nm, respectively. TBARS activity was expressed as the percent inhibition (Equation 1) of LDL oxidation with comparison to the positive control, where F is fluorescence:
(§5) Percent inhibition (%)=100(Fpositive control−Fsample)/(Fpositive control) (1)

For assay [2], the system named is LDL isolated from human plasma. Nature of the assay: TBARS assay, AAPH-induced LDL oxidation. The method, then:
as §1, §2, §3, §4, §5

The test system of assay [3] is LDL isolated from human plasma. The assay can be described thus: In vitro LDL oxidation inhibition, statements covering both induction systems or both product types. The conditions noted are these: for Pro-oxidant effect (statement): 5-50 mg L^−1. The method, then:
as §2, §3
TBARS were measured according to the method of Xu et al., J. Food Sci., 2007, 72: S522-S527 with slight modifications. […]. The mixture was incubated at 95° C. for 30 min to develop a pink chromogen. After cooling to room temperature tubes were centrifuged at 1500 g for 15 min and the fluorescence was measured using the FLUOstar OPTIMA plate reader (BMG Labtech Inc. Canada). Excitation and emission wavelengths used were 532 and 590 nm, respectively. TBARS activity was expressed as the percent inhibition (Equation 1) of LDL oxidation with comparison to the positive control, where F is fluorescence:
The formation of hydroperoxides was measured by the lipid compatible formulation of the Peroxoquant™ quantitative peroxide assay kit. LDL oxidation was induced by Cu^2+ or AAPH and incubated for 4 hrs at 37° C. in the dark. Hydroperoxides were measured following the manufacturer's instructions. Absorbance was measured at 595 nm using FLUOstar OPTIMA plate reader (BMG Labtech, Durham, N.C., USA). Activity of hydroperoxides was expressed as the percent inhibition of LDL with comparison to the positive control (Equation 1).

[4] abbreviates: 50 mg L^−1, comparison of constituent compounds and metabolites (Table 4).

Marks after values point to notes of the source that are not given here.

Take `O=c1c(O[C@@H]2O[C@H](CO)[C@H](O)[C@H](O)[C@H]2O)c(-c2ccc(O)c(O)c2)oc2cc(O)cc(O)c12` [Quercetin-3-O-galactoside]: the “Percent inhibition of secondary LDL oxidation products, Cu induction” value (“Percent inhibition … Cu induction” for short) in assay [1] (0.0005 mg L^−1) is listed as 6.39 ± 2.33^c %; in assay [1] (0.001 mg L^−1), 4.88 ± 0.76^c %; in assay [1] (0.005 mg L^−1), 4.64 ± 1.50^c %; in assay [1] (0.01 mg L^−1), −6.51 ± 2.90^d %; in assay [1] (0.5 mg L^−1), 6.20 ± 1.77^c %; in assay [1] (1 mg L^−1) it was 27.61 ± 0.58^b %. For the same compound, the “Percent inhibition … Cu induction” value in assay [1] (5 mg L^−1) was 87.87 ± 0.32^a %; in assay [1] (10 mg L^−1) it was 89.88 ± 0.50^a %; in assay [1] (25 mg L^−1), 91.49 ± 0.88^a %; in assay [1] (50 mg L^−1), 92.73 ± 0.56^a %; in assay [1] (setting [4]) it was 105.34 ± 0.30^ab %. Moreover, the “Percent inhibition of secondary LDL oxidation products, AAPH induction” value (“Percent inhibition … AAPH induction” below) in assay [2] (0.0005 mg L^−1) is −29.51 ± 2.43^c %; in assay [2] (0.001 mg L^−1), −64.01 ± 6.16^c %; in assay [2] (0.005 mg L^−1), −35.63 ± 5.21^c %; in assay [2] (0.01 mg L^−1), −34.82 ± 4.98^c %; in assay [2] (0.5 mg L^−1), 37.82 ± 7.30^b %; in assay [2] (1 mg L^−1), 49.08 ± 3.10^b %. Besides, the “Percent inhibition … AAPH induction” value in assay [2] (5 mg L^−1) was 88.62 ± 2.58^a %; in assay [2] (10 mg L^−1), 86.65 ± 1.82^a %; in assay [2] (25 mg L^−1), 85.58 ± 2.24^a %; in assay [2] (50 mg L^−1), 92.23 ± 1.87^a %; in assay [2] (setting [4]), 141.68 ± 1.43^a %. In addition, the “Pro-oxidant effect (statement)” value in assay [3] is recorded as “did not show any pro-oxidant effect”. The “LDL oxidation inhibition for both the induction systems” value in assay [3] (concentrations greater than 5 mg L^−1) was “more than 85%”.

In the case of `O=c1c(O)c(-c2ccc(O)c(O)c2)oc2cc(O)cc(O)c12` [Quercetin], the “Percent inhibition … Cu induction” value in assay [1] (0.0005 mg L^−1) is reported as 13.97 ± 2.56^d %; in assay [1] (0.005 mg L^−1), 8.07 ± 3.33^de %; in assay [1] (0.01 mg L^−1), 4.62 ± 1.03^e %; in assay [1] (0.5 mg L^−1) it was 75.68 ± 1.31^c %; in assay [1] (1 mg L^−1), 85.87 ± 1.55^b %. Besides, the “Protection for Cu2+ induced LDL oxidation” value in assay [1] (beyond 1 mg L^−1) is “more than 80%”. Moreover, the “Percent inhibition … AAPH induction” value was 13.41 ± 0.67^e % in assay [2] (0.0005 mg L^−1); 28.18 ± 2.19^d % in assay [2] (0.001 mg L^−1); 23.17 ± 1.48^d % in assay [2] (0.005 mg L^−1); 16.71 ± 1.18^e % in assay [2] (0.01 mg L^−1); 46.78 ± 0.85^c % in assay [2] (0.5 mg L^−1); 66.41 ± 0.83^b % in assay [2] (1 mg L^−1). In addition, the “Percent inhibition … AAPH induction” value is 86.62 ± 2.00^a % in assay [2] (5 mg L^−1); 90.20 ± 0.63^a % in assay [2] (10 mg L^−1); 92.04 ± 0.51^a % in assay [2] (25 mg L^−1); 91.90 ± 0.69^a % in assay [2] (50 mg L^−1); 85.06 ± 1.23^c % in assay [2] (setting [4]). Further, the “Protection for AAPH induced LDL oxidation” value in assay [2] (beyond 5 mg L^−1) is listed as “more than 80%”. Also, the “Pro-oxidant effect (statement)” value in assay [3] is reported as “did not show any pro-oxidant effect”.

As to `O=C(O)[C@H]1O[C@@H](Oc2c(-c3ccc(O)c(O)c3)oc3cc(O)cc(O)c3c2=O)[C@H](O)[C@@H](O)[C@@H]1O` [Quercetin-3-glucuronic acid], the “Percent inhibition … Cu induction” value is 10.73 ± 1.68^e % in assay [1] (0.0005 mg L^−1); 23.06 ± 2.97^d % in assay [1] (0.001 mg L^−1); 15.68 ± 2.22^e % in assay [1] (0.005 mg L^−1); 14.85 ± 0.80^e % in assay [1] (0.01 mg L^−1); 71.09 ± 1.34^c % in assay [1] (0.5 mg L^−1); 88.59 ± 0.21^b % in assay [1] (1 mg L^−1). The “Percent inhibition … Cu induction” value is recorded as 90.37 ± 2.31^b % in assay [1] (5 mg L^−1); 94.2 ± 31.32^ab % in assay [1] (10 mg L^−1); 95.24 ± 0.71^ab % in assay [1] (25 mg L^−1); 98.64 ± 0.47^a % in assay [1] (50 mg L^−1); 49.40 ± 2.04^d % in assay [1] (setting [4]). Further, the “Percent inhibition … AAPH induction” value is on record as 11.79 ± 2.10^f % in assay [2] (0.0005 mg L^−1); 26.29 ± 1.68^d % in assay [2] (0.001 mg L^−1); 24.12 ± 1.53^de % in assay [2] (0.005 mg L^−1); −1.96 ± 3.37^g % in assay [2] (0.01 mg L^−1); 4.32 ± 1.18^fg % in assay [2] (0.5 mg L^−1); 13.31 ± 1.79^ef % in assay [2] (1 mg L^−1). Further, the “Percent inhibition … AAPH induction” value in assay [2] (5 mg L^−1) is given as 55.17 ± 0.33^c %; in assay [2] (10 mg L^−1), 80.74 ± 3.27^a %; in assay [2] (25 mg L^−1), 66.69 ± 2.41^b %; in assay [2] (50 mg L^−1) it was 72.00 ± 0.97^ab %; in assay [2] (setting [4]), 74.24 ± 1.36^d %. Moreover, the “Protection against LDL oxidation, quercetin metabolites (statement)” value in assay [3] (50 mg L^−1) is recorded as “best protection”. Also, in assay [3], the “Pro-oxidant effect (statement)” value is “did not show any pro-oxidant effect”.
